Counter-ions that a name gives are not always drawn.
Assays:
Design in all cases: species or system Homo sapiens
[1] = Inhibition of purified PDGFR (unknown origin)
[2] = Inhibition of purified FGFR (unknown origin)
[3] = Inhibition of purified CDK2/Cyclin A (unknown origin)

Measured: IC50

C=CC(=O)Nc1cc2c(Nc3ccc(F)c(Cl)c3)ncnc2cc1OCCCN1CCOCC1 [CANERTINIB DIHYDROCHLORIDE]
> 50 µM: all assays above

Source: ChEMBL document CHEMBL5653597, “CI-1033, an irreversible pan-erbB receptor inhibitor and its potential application for the treatment of breast cancer” (Semin Oncol, 2003)
